Results reported in the supplement of paper PMC11781733.
Counter-ions that a name gives are not always drawn.

Tests used:
Details in all cases: exposure time: 15 min to 3 h acute
Dugesia japonica [1] = experiment: corkscrew incidence (% planarians (vehicle-normalised)); higher = higher incidence or increase relative to vehicle control
Experimental: (§1)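 Adult asexual Dugesia japonica planarians (1 per well, 48-well plate, n=24 over technical triplicates) were exposed acutely (15 min to 3 h) to each compound (0.5% DMSO or water vehicle) and screened on a robotic platform for crawl-out, stickiness, body shape, phototaxis, noxious-heat scrunching and locomotion endpoints. Binary endpoints are incidence rate x100 normalised to in-plate vehicle controls. Continuous endpoints are the median response normalised to the plate vehicle median, as % change or difference. Negative incidences after vehicle subtraction were set to 0.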

Dugesia japonica [2] = experiment: resting fraction in blue light vs vehicle (difference in fraction x100 vs vehicle); higher = higher incidence or increase relative to vehicle control
Experimental: as §1

Dugesia japonica [3] = experiment: total locomotor bursts minus vehicle (bursts difference vs vehicle); higher = higher incidence or increase relative to vehicle control
Experimental: as §1

Dugesia japonica [4] = experiment: speed in dark vs vehicle (% change vs vehicle); higher = higher incidence or increase relative to vehicle control
Experimental: as §1

Dugesia japonica [5] = experiment: anxiety (time in outer well region) vs vehicle (% change vs vehicle); higher = higher incidence or increase relative to vehicle control
Experimental: as §1

Dugesia japonica [6] = experiment: noxious heat displacement strength vs vehicle (% change vs vehicle); higher = higher incidence or increase relative to vehicle control
Experimental: as §1

Dugesia japonica [7] = experiment: crawl-out incidence (% planarians); higher = higher incidence or increase relative to vehicle control
Experimental: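 Adult asexual Dugesia japonica planarians (1 per well, 48-well plate, n=24 over technical triplicates) were exposed acutely (15 min to 3 h) to each compound (0.5% DMSO or water vehicle) and screened on a robotic platform for crawl-out, stickiness, body shape, phototaxis, noxious-heat scrunching and locomotion endpoints. Binary endpoints are incidence rate x100. Continuous endpoints are the median response normalised to the plate vehicle median, as % change or difference. Negative incidences after vehicle subtraction were set to 0.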

Dugesia japonica [8] = experiment: speed first 30 s blue light vs vehicle (% change vs vehicle); higher = higher incidence or increase relative to vehicle control
Experimental: as §1

Dugesia japonica [9] = experiment: pharynx extrusion incidence (% planarians (vehicle-normalised)); higher = higher incidence or increase relative to vehicle control
Experimental: as §1

Dugesia japonica [10] = experiment: speed second 30 s blue light vs vehicle (% change vs vehicle); higher = higher incidence or increase relative to vehicle control
Experimental: as §1

Dugesia japonica [11] = experiment: any abnormal body shape incidence (% planarians (vehicle-normalised)); higher = higher incidence or increase relative to vehicle control
Experimental: as §1

Dugesia japonica [12] = experiment: contracted body shape incidence (% planarians (vehicle-normalised)); higher = higher incidence or increase relative to vehicle control
Experimental: as §1

Dugesia japonica [13] = experiment: hyperkinesis incidence (% planarians (vehicle-normalised)); higher = higher incidence or increase relative to vehicle control
Experimental: as §1

Dugesia japonica [14] = experiment: resting fraction in dark vs vehicle (difference in fraction x100 vs vehicle); higher = higher incidence or increase relative to vehicle control
Experimental: as §1

Dugesia japonica [15] = experiment: stickiness incidence (% planarians (vehicle-normalised)); higher = higher incidence or increase relative to vehicle control
Experimental: as §1

Dugesia japonica [16] = experiment: C-shape incidence (% planarians (vehicle-normalised)); higher = higher incidence or increase relative to vehicle control
Experimental: as §1

Dugesia japonica [17] = experiment: loss of phototaxis incidence (% planarians (vehicle-normalised)); higher = higher incidence or increase relative to vehicle control
Experimental: as §1

Dugesia japonica [18] = experiment: loss of heat-induced scrunching incidence (% planarians (vehicle-normalised)); higher = higher incidence or increase relative to vehicle control
Experimental: as §1

| Compound | corkscrew incidence (Dugesia japonica [1]) | resting fraction in blue light (Dugesia japonica [2]) | total locomotor bursts minus vehicle (Dugesia japonica [3]) | speed in dark (Dugesia japonica [4]) | anxiety (Dugesia japonica [5]) | noxious heat displacement strength (Dugesia japonica [6]) | crawl-out incidence (Dugesia japonica [7]) | speed first 30 s blue light (Dugesia japonica [8]) | pharynx extrusion incidence (Dugesia japonica [9]) | speed second 30 s blue light (Dugesia japonica [10]) | any abnormal body shape incidence (Dugesia japonica [11]) | contracted body shape incidence (Dugesia japonica [12]) | hyperkinesis incidence (Dugesia japonica [13]) | resting fraction in dark (Dugesia japonica [14]) | stickiness incidence (Dugesia japonica [15]) | C-shape incidence (Dugesia japonica [16]) | loss of phototaxis incidence (Dugesia japonica [17]) | loss of heat-induced scrunching incidence (Dugesia japonica [18]) |
| --- | --- | --- | --- | --- | --- | --- | --- | --- | --- | --- | --- | --- | --- | --- | --- | --- | --- | --- |
| O=C(CCCN1CC=C(n2c(=O)[nH]c3ccccc32)CC1)c1ccc(F)cc1 [droperidol] (3.16 µM) | 8.33 | 66.1 | 18.8 | -77.5 | -4.16 | -42.7 | 0 | -90.1 | 0 | -89.6 | 50 | 16.7 | 37.5 | 62.6 | 8.33 | 12.5 | 45.8 | 66.7 |
| O=C(CCCN1CC=C(n2c(=O)[nH]c3ccccc32)CC1)c1ccc(F)cc1 [droperidol] (10 µM) | 12.5 | 67.9 | 19.5 | -80 | -31.9 | -23.3 | 0 | -93.8 | 0 | -91.1 | 70.8 | 29.2 | 25 | 68.7 | ≤ 0 | 20.8 | 54.2 | 70.8 |
| O=C(CCCN1CC=C(n2c(=O)[nH]c3ccccc32)CC1)c1ccc(F)cc1 [droperidol] (31.6 µM) | 4.17 | 85.4 | 12.2 | -81.9 | -26.3 | -34 | 0 | -94.6 | 0 | -94.3 | 95.8 | 70.8 | 25 | 86.7 | 12.5 | 29.2 | 58.3 | 75 |
| O=C(CCCN1CC=C(n2c(=O)[nH]c3ccccc32)CC1)c1ccc(F)cc1 [droperidol] (100 µM) | 0 | 93.1 | 30 | -79.8 | -37 | -26.6 | 4.17 | -94.2 | 0 | -96.2 | 100 | 100 | 0 | 74.8 | 13 | 4.35 | 60.9 | 73.9 |
| CN(C)CCC[C@@]1(c2ccc(F)cc2)OCc2cc(C#N)ccc21 [escitalopram] (31.6 µM) | 0 | 0 | -1.25 | -4.33 | 3.28 | -31.5 | 0 | 12.5 | 0 | 4.85 | 0 | 4.17 | 0 | -4.32 | 8.33 | 0 | 4.17 | 37.5 |
| CN(C)CCC[C@@]1(c2ccc(F)cc2)OCc2cc(C#N)ccc21 [escitalopram] (100 µM) | 0 | -0.46 | 1.75 | -3.87 | 1.47 | -34 | 0 | -13.7 | 0 | -2.15 | 0 | 0 | 0 | -4.57 | ≤ 0 | 0 | 16.7 | 25 |
| CN(C)CCC[C@@]1(c2ccc(F)cc2)OCc2cc(C#N)ccc21 [escitalopram] (316 µM) | 0 | -0.69 | 16 | -24.6 | 1.26 | -39.8 | 0 | -31.5 | 0 | -35.5 | 50 | 0 | 50 | -1.78 | ≤ 0 | 0 | ≤ 0 | 25 |
| CN(C)CCC[C@@]1(c2ccc(F)cc2)OCc2cc(C#N)ccc21 [escitalopram] (1000 µM) | 26.1 | 18.9 | 37.8 | -42.1 | 19.7 | -59 | 4.17 | -68.2 | 0 | -66.8 | 69.6 | 4.35 | 56.5 | 17.6 | 30.4 | 0 | 8.7 | 60.9 |
| CN1CC(=O)N=C1NC(=O)Nc1cccc(Cl)c1 [fenobam] (100 µM) | 0 | 0.38 | 2 | -18.5 | -2.96 | -43 | 0 | -26.8 | 0 | -27 | 0 | 0 | 0 | 0 | ≤ 0 | 0 | ≤ 0 | 8.33 |
| CN1CC(=O)N=C1NC(=O)Nc1cccc(Cl)c1 [fenobam] (178 µM) | 0 | 0 | 0.5 | -3.57 | 3.95 | -42.2 | 0 | -12.6 | 0 | -18.9 | 0 | 0 | 0 | 0.09 | ≤ 0 | 0 | ≤ 0 | ≤ 0 |
| CN1CC(=O)N=C1NC(=O)Nc1cccc(Cl)c1 [fenobam] (316 µM) | 0 | 0.18 | 0 | -12.6 | -0.1 | -32.2 | 0 | -14.2 | 0 | -16.9 | 0 | 0 | 0 | 0 | ≤ 0 | 0 | ≤ 0 | ≤ 0 |
| CN1CC(=O)N=C1NC(=O)Nc1cccc(Cl)c1 [fenobam] (562 µM) | 0 | 1.05 | 2.75 | -21.3 | -14.4 | -39.8 | 0 | -24.4 | 0 | -18.3 | 0 | 0 | 0 | 0.55 | ≤ 0 | 0 | ≤ 0 | ≤ 0 |
| CNCCC(Oc1ccc(C(F)(F)F)cc1)c1ccccc1 (stereo not given) [fluoxetine hydrochloride] (3.16 µM) | 0 | -1.89 | -7.5 | -5.68 | 8.3 | -9.15 | 0 | -11.9 | 0 | -5.1 | 0 | 0 | 0 | -6.73 | ≤ 0 | 0 | ≤ 0 | 16.7 |
| CNCCC(Oc1ccc(C(F)(F)F)cc1)c1ccccc1 (stereo not given) [fluoxetine hydrochloride] (10 µM) | 0 | -1.17 | 1 | -41.5 | 10.3 | -40 | 4.17 | -37.3 | 0 | -39.7 | 0 | 0 | 0 | -0.39 | ≤ 0 | 0 | ≤ 0 | 8.7 |
| CNCCC(Oc1ccc(C(F)(F)F)cc1)c1ccccc1 (stereo not given) [fluoxetine hydrochloride] (31.6 µM) | 0 | 6.49 | 9 | -58.6 | 10.3 | -49.6 | 0 | -70.9 | 0 | -66.4 | 0 | 0 | 0 | 10.3 | ≤ 0 | 0 | 16.7 | 8.33 |
